Measured values taken from patent US20070202062A1, “Natural deodorant compositions comprising renewably-based, biodegradable 1,3-propanediol” (priority 2006, published 2007).

Tests used:
[1] = Glycerine vs Bio-PDO - Stability (Shrinkage - 3 months); type: physicochemical
[2] = Glycerine vs Bio-PDO - Stability (Efficacy/shelf-life); conditions: active in GLYCERINE; in vivo (human)
[3] = Glycerine vs Bio-PDO - Efficacy (deodorant actives, in vivo human)
[4] = Glycerine vs Bio-PDO - Irritation (in vivo human)

Row | Molecule | Stability (Shrinkage - 3 months), % in product ([1]; active in Bio-PDO) [%] | Stability (Shrinkage - 3 months), % in product ([1]; active in GLYCERINE) [%] | Stability (Efficacy/shelf-life), # months [2] [months] | Efficacy, # hours ([3]; active in Bio-PDO) [h] | Efficacy, # hours ([3]; active in GLYCERINE) [h] | Irritation, Ranking 1-10 ([4]; active in Bio-PDO) | Irritation, Ranking 1-10 ([4]; active in GLYCERINE)
1 | CCCCCCCCCCCC(=O)OCC(O)CO (stereo not drawn) [GML, Glyceryl monolaurate] | 3 | 0 | 6 | 12 | 4 | 0 | 0
2 | polyglyceryl-3 caprylate [polyglycerol 3 caprylate] |  |  |  | 12 | 0 |  | 
